From patent US20120141461A1, “COMPOSITIONS AND METHODS FOR DIAGNOSING AND TREATING FIBROTIC DISORDERS” (THE REGENTS OF THE UNIVERSITY OF MICHIGAN, priority 2009, published 2012) come the findings set out here.

One experiment has as its system C57BL/6 mice. In words: Murine model of bleomycin-induced lung injury/fibrosis. It counts as in vivo, mouse. The method, then:
RNA was extracted and expression of NOX4 mRNA analyzed by real-time PCR; (b) C57BL/6 mice were administered intra-tracheal (IT) bleomycin on day 0.
C57BL/6J mice (6-8 weeks of age; Jackson Laboratories, Bar Harbor, Me.) were anesthetized with intraperitoneal injection of ketamine and xylazine. Intra-tracheal bleomycin (0.025 U) or FITC (4.67 mg/ml suspension in PBS) was administered to induce lung injury. The University of Michigan Committee on the Use and Care of Animals approved the animal protocols.
(§1) For in vitro RNAi, cells were transfected with single duplexes targeting NOX4 or non-targeting control siRNA (100 nM) using Lipofectamine-2000 reagent. For in vivo RNAi studies, NOX4 siRNA or control nontargeting siRNA (Dharmacon Inc.) were administered at a dose of ˜50 μg per mouse by intratracheal injection with bleomycin, FITC, or saline, in a total volume of 50 μl using a 26-gauge needle.
(§2) Cell lysates were prepared in RIPA buffer, subjected them to SDS-PAGE under reducing conditions and performed western immunoblotting as previously described (Horowitz et al. J Biol Chem 279, 1359-1367 (2004), herein incorporated by reference in its entirety).
Acid-soluble collagen was measured in cell culture supernatants or whole lung homogenates using the Sircol assay as previously described (Vittal et al. Am J Pathol 166, 367-375 (2005), herein incorporated by reference in its entirety).
Murine whole lungs were homogenized in PBS, then acidified (by adding an equal volume of 12 N HCl), hydrolyzed (by heating at 120° C. for 24 h), and processed samples for hydroxyline measurements as previously described 29. Lung histology and immunohistochemical staining Paraffin embedded tissue sections were processed for lung histology and immunohistochemical staining as previously described described (Vittal et al. Am J Pathol 166, 367-375 (2005), herein incorporated by reference in its entirety).

The test system of experiment [1] is human fetal lung mesenchymal cells (hFLMCs). The experiment can be described thus: TGF-β1-induced collagen gel contractility of hFLMCs in 3D-collagen matrices. The experiment is classed as cell-based. Conditions: catalase at 750 U/ml. The method, then: (§3) Collagen gels were reconstituted by mixing 1 part of 3 mg/ml neutralized rat tail collagen type 1 and two parts of cell suspension in serum-free media. Cell suspensions were seeded at a density of 200,000 cells per ml into 24-well tissue culture plates and allowed the gels to polymerize at 37° C. for 1 h before adding 1 ml of media. Gels were incubated overnight prior to treatments, and gently detached the edge of the gels from the walls of the well using a sterile spatula. Gels were photographed and gel area was measured using ImageJ (NIH) software.

Experiment [2] shares this test system. The experiment can be described thus: Myofibroblast differentiation markers in hFLMCs in 3D-collagen matrix, Western immunoblotting. The experiment is classed as cell-based. To be noted: catalase 750 U/ml, TGF-β1 2 ng/ml x 16 h. The protocol: as §3, §1, §2
The mark [3] stands for this setting: DPI 1.6 mg/kg daily intra-peritoneal on days 8 to 21, day 21.

In the case of `c1ccc2c(c1)[I+]c1ccccc1-2` [DPI, diphenyleneiodonium chloride], the “protection from fibrosis, acid-soluble collagen in whole lung” value with C57BL/6 mice (DPI 1.6 mg/kg daily intra-peritoneal on days 8 to 21, Sircol assay on day 21) is reported as “significant protection from fibrosis”. In the experiment on C57BL/6 mice (setting [3]), the “expression of NOX4 and α-SMA expressing myofibroblasts (IHC)” value is “reduced expression”; the “fibrosis by histopathology and Masson's trichrome staining for collagen” value was “reduced fibrosis”.

B1: catalase: an enzyme which reduces H2O2 to H2O (protein, UniProt P04040 2-527, looked up)
Catalase: ADSRDPASDQMQHWKEQRAAQKADVLTTGAGNPVGDKLNVITVGPRGPLLVQDVVFTDEMAHFDRERIPERVVHAKGAGAFGYFEVTHDITKYSKAKVFEHIGKKTPIAVRFSTVAGESGSADTVRDPRGFAVKFYTEDGNWDLVGNNTPIFFIRDPILFPSFIHSQKRNPQTHLKDPDMVWDFWSLRPESLHQVSFLFSDRGIPDGHRHMNGYGSHTFKLVNANGEAVYCKFHYKTDQGIKNLSVEDAARLSQEDPDYGIRDLFNAIATGKYPSWTFYIQVMTFNQAETFPFNPFDLTKVWPHKDYPLIPVGKLVLNRNPVNYFAEVEQIAFDPSNMPPGIEASPDKMLQGRLFAYPDTHRHRLGPNYLHIPVNCPYRARVANYQRDGPMCMQDNQGGAPNYYPNSFGAPEQQPSALEHSIQYSGEVRRFNTANDDNVTQVRAFYVNVLNEEQRKRLCENIAGHLKDAQIFIQKKAVKNFTEVHPDYGSHIQALLDKYNAEKPKNAIHTFVQSGSHLAAREKANL
In the case of B1, the “TGF-β1-induced collagen gel contractility” value in experiment [1] was “inhibited”. Also, in experiment [2], the “fibronectin synthesis induced by TGF-β1” value was “inhibited” and the “upregulation of α-smooth muscle actin (α-SMA) induced by TGF-β1” value is reported as “inhibited”.
